Legend:
sEH = sEH (Homo sapiens (Human), UniProt P34913); conditions: cited from earlier work
[1] = tested on: MPTP-induced neurotoxicity in the mouse SN; conditions: cited from earlier work
[2] = PTZ induced seizure model; Example 52 and FIG. 7 of WO 2015/148954; cited from earlier work
[3] = tested on: MPTP-induced neurotoxicity in the striatum and SN; experiment: MPTP-induced mouse model of PD: immunohistochemistry of DAT and TH; conditions: MPTP 10, 15, or 20 mg/kg ×3 IP, 2-h intervals; 7 days after injection
[4] = tested on: eicosanoids metabolites in the striatum; experiment: Oxylipin profiling of striatum from MPTP-treated mice; type: in vivo, mouse; conditions: MPTP 10 mg/kg×3 IP, 7 days after injection; mean +/− SEM
Method: Oxylipin profiling. […] Striatum was dissected from brain, and the samples were stored at −80° C. before assay. Measurement of eicosanoids was performed using the previous method (59).

[5] = tested on: ER stress, oxidative stress, sEH and α-synuclein proteins in the mouse striatum; experiment: Western blot analysis of mouse striatum after MPTP; type: in vivo
Method: Western blot analysis of mouse brain samples. Western blot analysis was performed as reported previously (53,56). Mice were killed by cervical dislocation and brains were rapidly removed from the skull, and the striatum of mice were dissected on ice. The tissue samples were homogenized in Laemmli lysis buffer. […] Proteins were transferred onto polyvinylidenedifluoride (PVDF) membranes using a Trans Blot Mini Cell (Bio-Rad). For immunodetection, the blots were blocked with 2% BSA in TBST (TBS+0.1% Tween-20) for 1 h at room temperature (RT), and kept with primary antibodies overnight at 4° C. […] After final three washes with TBST, bands were detected using enhanced chemiluminescence (ECL) plus the Western Blotting Detection system (GE Healthcare Bioscience). Images were captured with a ChemDoc imaging system (Bio-Rad), and the immunoreactive bands were analysis by Image Lab software.

[6] = pH 7.4; cited from earlier work

sEH, sequence (P34913 whole entry): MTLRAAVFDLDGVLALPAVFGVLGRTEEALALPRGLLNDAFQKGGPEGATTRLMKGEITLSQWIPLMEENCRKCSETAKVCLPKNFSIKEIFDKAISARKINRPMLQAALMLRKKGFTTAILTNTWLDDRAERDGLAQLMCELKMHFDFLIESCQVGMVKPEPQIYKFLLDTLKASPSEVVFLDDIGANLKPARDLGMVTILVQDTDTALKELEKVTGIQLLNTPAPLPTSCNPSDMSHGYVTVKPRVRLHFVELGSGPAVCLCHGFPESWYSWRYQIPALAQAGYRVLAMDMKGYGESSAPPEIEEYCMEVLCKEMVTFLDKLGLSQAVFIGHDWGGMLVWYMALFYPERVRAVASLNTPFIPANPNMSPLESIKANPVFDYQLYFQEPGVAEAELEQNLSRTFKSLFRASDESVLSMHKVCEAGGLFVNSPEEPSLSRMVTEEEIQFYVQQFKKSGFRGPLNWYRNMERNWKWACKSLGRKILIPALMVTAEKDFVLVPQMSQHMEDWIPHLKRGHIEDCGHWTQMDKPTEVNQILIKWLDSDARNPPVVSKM

## CCCCCCCCCCCCNC(=O)NC12CC3CC(CC(C3)C1)C2 [ADU, N-Adamantyl-N′-dodecyl urea]
sEH
  activity on sEH: particularly high activity

## O=C(O)CCCCCCCCCCCNC(=O)NC12CC3CC(CC(C3)C1)C2 [AUDA, 12-(3-Adamantan-1-yl-ureido)dodecanoic acid]
[1]; posttreatment
  MPTP-induced neurotoxicity, posttreatment: did not attenuate
[1]; pretreatment
  MPTP-induced loss of TH-positive cells in the mouse SN, pretreatment: attenuated

## O=C(Nc1ccc(OC(F)(F)F)c(F)c1)NC1CCN(C(=O)C2CCOCC2)CC1 [Compound 29, 1-(3-fluoro-4-(trifluoromethoxy)phenyl)-3-(1-(tetrahydro-2H-pyran-4-carbo-nyl)piperidin-4-yl)urea]
[2]
  crossing of the blood-brain barrier: cross the blood-brain barrier

## CN1CC=C(c2ccccc2)CC1 [MPTP, 1-methyl-4-phenyl-1,2,3,6-tetrahydropyridine]
[3]
  DAT and TH density in the striatum and TH-positive cell number in the SN compared with control mice: significant reductions
[4]
  Level of 5(6)-EpETrE in the striatum: 544.908 ± 19.111
  Level of 6-keto-PGF1a in the striatum: 20.015 ± 1.352
  Level of 8(9)-EpETrE in the striatum: 19.048 ± 1.310
  Level of 9(10)-EpOME in the striatum: 6.641 ± 0.431
  Level of 9,10,13-TriHOME in the striatum: 33.635 ± 2.452
  Level of 9,10-DiHOME in the striatum: 1.346 ± 0.158
  Level of 9,12,13-TriHOME in the striatum: 59.487 ± 4.168
  Level of 9-HODE in the striatum: 41.360 ± 3.045
  Level of 9-oxo-ODE in the striatum: 46.977 ± 5.160
  Level of 10(11)-EpDPE in the striatum: 9.530 ± 0.829
  Level of 11(12)-EpETrE in the striatum: 61.583 ± 4.605
  Level of 11-HETE in the striatum: 114.056 ± 5.188
  Level of 12(13)-EpOME in the striatum: 7.073 ± 0.689
  Level of 12,13-DIHOME in the striatum: 8.348 ± 1.710
  Level of 12-HETE in the striatum: 136.621 ± 26.845
  Level of 13-HODE in the striatum: 58.399 ± 5.240
  Level of 14(15)-EpETrE in the striatum: 77.976 ± 11.479
  Level of 15,16-DiHODE in the striatum: 3.667 ± 0.609
  Level of 15-HETE in the striatum: 129.113 ± 6.703
  Level of 19,20-DiHDPE in the striatum: 5.310 ± 0.523
  Level of EKODE in the striatum: 23.007 ± 4.170
  Level of PGD2 in the striatum: 127.452 ± 4.968
  Level of PGE2 in the striatum: 13.830 ± 1.069
  Level of PGF2a in the striatum: 160.704 ± 7.212
  Level of TXB2 in the striatum: 98.406 ± 4.740
[5]; MPTP 10 mg/kg×3
  phosphorylated α-synuclein/α-synuclein ratio in the striatum compared with control mice: significant increase
[5]; MPTP 10 mg/kg×3, 7 days after injection
  expression of GSH, iNOS, and SOD in the striatum: alterations
[5]; MPTP 10 mg/kg×3, three or 7 days after injections
  sEH protein in the striatum compared with control mice: significant increase

## CC[C@H](C)C(=O)N1CCC(NC(=O)Nc2ccc(OC(F)(F)F)c(F)c2)CC1 [compound 26]
[6]
  w.s. (water solubility): 1 µM
